Assays:
PC-3 cells = test: Proliferation inhibition assay, PC-3; assay type: cell-based
Method: (§1) Cell Culture. LS174T (colon cancer cells), PC-3 (prostate cancer cells), MCF-7 (beast) and A549 (lung) were cultured in the medium recommended by American Type Culture Collection at 37° C. with 5% CO2 atmosphere in a water jacketed incubator. Ovcar-8 and NCI/ADR-RES are gifts from Dr. Markos Leggas. Alpha-tubulin antibodies, TRITC-conjugated anti-rabbit antibody.
(§2) Proliferation inhibition assay. Cancer cells were seeded into 24-well plates at a density of 20,000 cells per well in 1 mL of culture medium and cultured overnight at 37° C. Compounds and the vehicle control DMSO were added to the cells. After 6 days, medium was removed and 100 μL of trypsin was added. Then the cells resuspended in pbs were counted by Vi-CELL XR 2.03 (Beckman Coulter, Inc. USA). The ratio R of the number of viable cells in the compound treatment group to the number of viable cells in DMSO treatment group was taken as relative growth, and the percentage growth inhibition was calculated as: (1−R)*100. For initial testing, compounds were added to the cells at a final concentration 10 μM. Active compounds at 10 μM would be tested at lower concentrations.

LS174T cells = test: Proliferation inhibition assay, LS174T; assay type: cell-based
Method: as §1, §2

[1] = Homo sapiens, PC-3, 10 μM, Table 1
[2] = Homo sapiens, LS174T, 10 μM, Table 1
[3] = Homo sapiens, PC-3, 1 μM, Table 1
[4] = Homo sapiens, LS174T, 1 μM, Table 1
[5] = Homo sapiens, PC-3, 10 μM, Table 2
[6] = Homo sapiens, LS174T, 10 μM, Table 2
[7] = Homo sapiens, PC-3, 1 μM, Table 2
[8] = Homo sapiens, PC-3, 300 nM, Table 2
[9] = Homo sapiens, LS174T, 1 μM, Table 2

Row | Structure (SMILES) | inhibition at 10 µM (PC-3 cells; [1]) | inhibition at 10 µM (LS174T cells; [2]) | inhibition at 10 µM (PC-3 cells; [5]) | inhibition at 10 µM (LS174T cells; [6]) | other results
1 | Cn1cc(/C=C2\Oc3cc(O)ccc3C2=O)c2ccccc21 [Aurone 3j] | 41 ± 25% | 54 ± 15% |  |  | 
2 | O=C1/C(=C/c2ccc(N3CCOCC3)cc2)Oc2cc(O)ccc21 [Aurone 2b] | 7.8 ± 7.7% | 0% |  |  | 
3 | CCn1cc(/C=C2\Oc3cc(O)ccc3C2=O)c2cc(OC)ccc21 [Aurone 3l] | 69 ± 16% | 83 ± 1.2% |  |  | inhibition at 1 µM (PC-3 cells; [3]): 13 ± 9.5%; inhibition at 1 µM (LS174T cells; [4]): 4.5 ± 7.3%
4 | O=C1/C(=C/c2ccc(N3CCCC3)cc2)Oc2cc(O)ccc21 [Aurone 2a] | 95 ± 4.7% | 23 ± 2.9% |  |  | inhibition at 1 µM (PC-3 cells; [3]): 2.1 ± 7.1%; inhibition at 1 µM (LS174T cells; [4]): 0%
5 | CCn1cc(/C=C2\Oc3cc(OCC#N)ccc3C2=O)c2cc(O)ccc21 [Aurone 4b] |  |  |  |  | Inhibition of PC-3 Cells 300 nM (PC-3 cells; 300 nM, Table 2): 24 ± 11%; Inhibition of PC-3 Cells 1 μM (PC-3 cells; 1 μM, Table 2): 96 ± 2%; Inhibition of PC-3 Cells 10 μM (PC-3 cells; 10 μM, Table 2): 96 ± 1.6%; Inhibition of LS174T Cells 1 μM (LS174T cells; 1 μM, Table 2): 26 ± 15%; Inhibition of LS174T Cells 10 μM (LS174T cells; 10 μM, Table 2): 83 ± 4.8%
6 | COc1cccc2ccc(/C=C3\Oc4cc(O)ccc4C3=O)nc12 [Aurone 3g] | 97 ± 0.8% | 91 ± 2.4% |  |  | inhibition at 1 µM (PC-3 cells; [3]): 40 ± 8.4%; inhibition at 1 µM (LS174T cells; [4]): 20 ± 9.1%
7 | O=C1/C(=C/c2nccc3ccccc23)Oc2cc(O)ccc21 [Aurone 3d] | 88 ± 5.5% | 79 ± 3.6% |  |  | inhibition at 1 µM (LS174T cells; [4]): 2.7 ± 6.4%
8 | Cn1cc(/C=C2\Oc3cc(OCc4c(F)cccc4F)ccc3C2=O)c2ccccc21 [Aurone 4f] |  |  | 82 ± 4.3% | 0.5 ± 1.7% | 
9 | Cn1cc(/C=C2\Oc3cc(OCc4c(F)cccc4Cl)ccc3C2=O)c2ccccc21 [Aurone 4h] |  |  | 31 ± 40% | 38 ± 2% | inhibition at 1 µM (PC-3 cells; [7]): 0%
10 | Cn1cc(/C=C2\Oc3cc(OCc4ccccc4F)ccc3C2=O)c2ccccc21 [Aurone 4d] |  |  | 0% | 7.1 ± 17% | 
11 | CCn1cc(/C=C2\Oc3cc(OCc4c(Cl)cccc4Cl)ccc3C2=O)c2ccccc21 [Aurone 4q] |  |  | 97 ± 0.6% | 96% | inhibition at 0.1 µM (PC-3 cells; Homo sapiens, PC-3, 100 nM, Table 2): 17 ± 6.8%; inhibition at 0.3 µM (PC-3 cells; [8]): 75 ± 7.7%; inhibition at 1 µM (PC-3 cells; [7]): 98 ± 1%; inhibition at 0.3 µM (LS174T cells; Homo sapiens, LS174T, 300 nM, Table 2): 0%; inhibition at 1 µM (LS174T cells; [9]): 93 ± 2.5%
12 | O=C1/C(=C/c2ccccn2)Oc2cc(O)ccc21 [Aurone 3a] | 8.8 ± 15% | 0% |  |  | 
13 | COc1ccc2c(c1)c(/C=C1\Oc3cc(O)ccc3C1=O)cn2C [Aurone 3k] | 35 ± 28% | 63 ± 0.7% |  |  | inhibition at 1 µM (PC-3 cells; [3]): 17 ± 5.5%; inhibition at 1 µM (LS174T cells; [4]): 13 ± 2.4%
14 | CCn1cc(/C=C2\Oc3cc(OCc4c(F)cccc4Cl)ccc3C2=O)c2ccccc21 [Aurone 4p] |  |  | 95 ± 4.4% | 93 ± 3.2% | inhibition at 0.3 µM (PC-3 cells; [8]): 44 ± 5.6%; inhibition at 1 µM (PC-3 cells; [7]): 91 ± 2.2%; inhibition at 1 µM (LS174T cells; [9]): 5.1 ± 19%
15 | O=C1/C(=C/c2cccnc2)Oc2cc(O)ccc21 [Aurone 3b] | 0% | 11 ± 3.6% |  |  | 
16 | COc1ccc2nc(/C=C3\Oc4cc(O)ccc4C3=O)ccc2c1 [Aurone 3f] | 8.4 ± 33% | 6.1 ± 13% |  |  | 
17 | O=C1/C(=C/c2c[nH]c3ccccc23)Oc2cc(O)ccc21 [Aurone 3i] | 20 ± 6.8% | 44 ± 8.6% |  |  | 
18 | O=C1/C(=C/c2ccnc3ccccc23)Oc2cc(O)ccc21 [Aurone 3h] | 63 ± 7.2% | 34 ± 11% |  |  | inhibition at 1 µM (PC-3 cells; [3]): 16 ± 3.5%
19 | CCn1cc(/C=C2\Oc3cc(OCc4ccccc4F)ccc3C2=O)c2cc(OC)ccc21 [Aurone 4n] |  |  | 52 ± 23% | 28 ± 11% | inhibition at 1 µM (PC-3 cells; [7]): 28 ± 15%; inhibition at 1 µM (LS174T cells; [9]): 0%
20 | COc1ccc2c(c1)c(/C=C1\Oc3cc(OCc4c(F)cccc4Cl)ccc3C1=O)cn2C [Aurone 4k] |  |  | 57 ± 18% | 53 ± 8.9% | 
21 | O=C1/C(=C/c2ccc3ccccc3n2)Oc2cc(O)ccc21 [Aurone 3e] | 99 ± 0.2% | 96 ± 0.9% |  |  | inhibition at 1 µM (PC-3 cells; [3]): 26 ± 8.6%; inhibition at 1 µM (LS174T cells; [4]): 7.7 ± 9.9%
22 | Cn1cc(/C=C2\Oc3cc(OCc4ccccc4Cl)ccc3C2=O)c2ccccc21 [Aurone 4e] |  |  | 20 ± 6.6% | 0% | 
